Like-named read-outs stand apart in the source and are kept apart here. One block for each compound: values may come before it.
Assays:
[1] = test system: LLC-PK1 control cells
[2] = test system: P-gp (MDR11199, G1199A) in recombinant LLC-PK1 cells; conditions: human, LLC-PK1
[3] = van Heeswijk et al. 2001; cited from earlier work
[4] = test system: HEK negative control cells; test: Cytotoxic drug sensitivity assay (MTS); assay type: cell-based, human; conditions: Homo sapiens, 72 h
[5] = test system: MDR1 (wild type); test: Cytotoxic drug sensitivity assay (MTS); assay type: cell-based, human; conditions: human, HEK293 cells recombinantly expressing MDR1 wild type
[6] = test system: MDR1 (G1199T variant); test: Cytotoxic drug sensitivity assay (MTS); assay type: cell-based, human; conditions: human, HEK293 cells recombinantly expressing MDR1 G1199T
[7] = test system: LLC-PK1 control cells; test: Intracellular uptake of HIV protease inhibitors; assay type: in vitro ADME, porcine
[8] = test system: LLC-PK1 control cells; test: Cytotoxic drug sensitivity assay (3H-thymidine); assay type: cell-based, porcine; conditions: Sus scrofa, 72 h, 3 days with drug
Method: (§1) On the second day of the incubation, 1 μCi of ^3H-thymidine (specific activity: 81.1 Ci/mmole) was added to each well and incubated overnight. Cells were harvested on day 3 with a cell harvester.
(§2) Dose response analysis was performed for doxorubicin, vincristine and vinblastine. […] TRANSEPITHELIAL TRANSPORT

[9] = test system: recombinant MDR11199 LLC-PK1 cells; test: Cytotoxic drug sensitivity assay (3H-thymidine); assay type: cell-based, porcine; conditions: for EC50 fold-change from control: MDR11199 vs LLC-PK1 control; for resistance of MDR11199 cells relative to MDR1wt cells: MDR11199 vs MDR1wt, from EC50; for EC50: Sus scrofa, 72 h, MDR11199 LLC-PK1 cells, 3 days with drug; for resistance of MDR11199 cells compared with MDR1wt cells: cytotoxicity studies, LLC-PK1
Method: as §1, §2

[10] = test system: recombinant MDR1wt LLC-PK1 cells; test: Cytotoxic drug sensitivity assay (3H-thymidine); assay type: cell-based, porcine; conditions: for EC50 fold-change from control: MDR1wt vs LLC-PK1 control; for EC50: Sus scrofa, 72 h, MDR1wt LLC-PK1 cells, 3 days with drug
Method: as §1, §2

[11] = biological target: T1, rMRP1 (Rattus norvegicus, UniProt Q8CG09); test: Transepithelial transport in differentiated rMRP1-MDCK cells; assay type: in vitro ADME
T1 construct: expressed in transfected cells
From the text: These stable recombinant cells can be used to evaluate drug candidates that are either MRP1 substrates or inhibitors, as well as further elucidate MRP1 structure and function.

[12] = test system: MDR1 (G1199A variant); test: in vitro; conditions: human; for EC50 at 72 h: HEK293 cells recombinantly expressing MDR1 G1199A
[13] = test system: HEK293 control cells; test: Intracellular levels of Rhodamine123 in HEK cells; assay type: cell-based, human
[14] = biological target: T2, MDR1wt in recombinant HEK cells (Homo sapiens, UniProt P08183, G185V/S893A); test: Intracellular levels of Rhodamine123 in HEK cells; assay type: cell-based
T2 construct: full-length MDR1 cDNA was generated using the high-fidelity protocol developed previously; expressed in transfected cells
T2 sequence (P08183 whole entry G185V/S893A): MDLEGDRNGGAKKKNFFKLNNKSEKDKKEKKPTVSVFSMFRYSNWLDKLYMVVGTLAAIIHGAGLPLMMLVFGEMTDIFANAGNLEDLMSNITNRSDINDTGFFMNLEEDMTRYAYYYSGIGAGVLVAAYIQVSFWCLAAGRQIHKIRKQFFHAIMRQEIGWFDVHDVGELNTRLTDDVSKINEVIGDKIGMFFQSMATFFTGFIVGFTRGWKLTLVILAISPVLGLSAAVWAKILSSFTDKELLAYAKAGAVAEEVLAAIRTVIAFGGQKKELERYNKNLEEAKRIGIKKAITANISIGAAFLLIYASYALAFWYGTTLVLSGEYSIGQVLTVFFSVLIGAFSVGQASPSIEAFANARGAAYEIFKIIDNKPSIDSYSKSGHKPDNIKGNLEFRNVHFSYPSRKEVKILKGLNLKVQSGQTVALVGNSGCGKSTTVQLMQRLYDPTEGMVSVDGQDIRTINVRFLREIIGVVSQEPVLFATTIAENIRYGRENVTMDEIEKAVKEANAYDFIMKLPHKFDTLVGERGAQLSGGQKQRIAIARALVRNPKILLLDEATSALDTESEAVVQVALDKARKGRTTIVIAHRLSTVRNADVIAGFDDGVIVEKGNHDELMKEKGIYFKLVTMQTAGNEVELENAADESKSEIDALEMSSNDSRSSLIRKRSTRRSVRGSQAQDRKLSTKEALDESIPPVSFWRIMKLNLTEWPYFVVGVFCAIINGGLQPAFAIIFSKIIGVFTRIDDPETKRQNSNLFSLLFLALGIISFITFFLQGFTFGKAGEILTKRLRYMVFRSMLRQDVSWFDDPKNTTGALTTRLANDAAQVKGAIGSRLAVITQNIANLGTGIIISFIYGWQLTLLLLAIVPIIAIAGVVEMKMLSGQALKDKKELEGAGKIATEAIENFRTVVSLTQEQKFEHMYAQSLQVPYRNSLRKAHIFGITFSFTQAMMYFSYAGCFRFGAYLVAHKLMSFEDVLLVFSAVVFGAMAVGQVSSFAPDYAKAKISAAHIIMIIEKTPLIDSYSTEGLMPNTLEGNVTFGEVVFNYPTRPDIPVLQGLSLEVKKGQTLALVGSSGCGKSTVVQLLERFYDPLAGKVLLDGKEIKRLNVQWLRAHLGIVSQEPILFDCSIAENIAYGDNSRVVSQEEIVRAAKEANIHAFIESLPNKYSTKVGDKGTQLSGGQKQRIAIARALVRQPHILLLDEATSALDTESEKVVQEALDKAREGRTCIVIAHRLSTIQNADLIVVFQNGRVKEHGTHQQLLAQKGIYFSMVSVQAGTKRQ

[15] = biological target: T3, MDR1G1199A in recombinant HEK cells (Homo sapiens, UniProt P08183, G185V/S400N/S893A); test: Intracellular levels of Rhodamine123 in HEK cells; assay type: cell-based
T3 construct: full-length MDR1 cDNA was generated using the high-fidelity protocol developed previously; expressed in transfected cells
T3 sequence (P08183 whole entry G185V/S400N/S893A): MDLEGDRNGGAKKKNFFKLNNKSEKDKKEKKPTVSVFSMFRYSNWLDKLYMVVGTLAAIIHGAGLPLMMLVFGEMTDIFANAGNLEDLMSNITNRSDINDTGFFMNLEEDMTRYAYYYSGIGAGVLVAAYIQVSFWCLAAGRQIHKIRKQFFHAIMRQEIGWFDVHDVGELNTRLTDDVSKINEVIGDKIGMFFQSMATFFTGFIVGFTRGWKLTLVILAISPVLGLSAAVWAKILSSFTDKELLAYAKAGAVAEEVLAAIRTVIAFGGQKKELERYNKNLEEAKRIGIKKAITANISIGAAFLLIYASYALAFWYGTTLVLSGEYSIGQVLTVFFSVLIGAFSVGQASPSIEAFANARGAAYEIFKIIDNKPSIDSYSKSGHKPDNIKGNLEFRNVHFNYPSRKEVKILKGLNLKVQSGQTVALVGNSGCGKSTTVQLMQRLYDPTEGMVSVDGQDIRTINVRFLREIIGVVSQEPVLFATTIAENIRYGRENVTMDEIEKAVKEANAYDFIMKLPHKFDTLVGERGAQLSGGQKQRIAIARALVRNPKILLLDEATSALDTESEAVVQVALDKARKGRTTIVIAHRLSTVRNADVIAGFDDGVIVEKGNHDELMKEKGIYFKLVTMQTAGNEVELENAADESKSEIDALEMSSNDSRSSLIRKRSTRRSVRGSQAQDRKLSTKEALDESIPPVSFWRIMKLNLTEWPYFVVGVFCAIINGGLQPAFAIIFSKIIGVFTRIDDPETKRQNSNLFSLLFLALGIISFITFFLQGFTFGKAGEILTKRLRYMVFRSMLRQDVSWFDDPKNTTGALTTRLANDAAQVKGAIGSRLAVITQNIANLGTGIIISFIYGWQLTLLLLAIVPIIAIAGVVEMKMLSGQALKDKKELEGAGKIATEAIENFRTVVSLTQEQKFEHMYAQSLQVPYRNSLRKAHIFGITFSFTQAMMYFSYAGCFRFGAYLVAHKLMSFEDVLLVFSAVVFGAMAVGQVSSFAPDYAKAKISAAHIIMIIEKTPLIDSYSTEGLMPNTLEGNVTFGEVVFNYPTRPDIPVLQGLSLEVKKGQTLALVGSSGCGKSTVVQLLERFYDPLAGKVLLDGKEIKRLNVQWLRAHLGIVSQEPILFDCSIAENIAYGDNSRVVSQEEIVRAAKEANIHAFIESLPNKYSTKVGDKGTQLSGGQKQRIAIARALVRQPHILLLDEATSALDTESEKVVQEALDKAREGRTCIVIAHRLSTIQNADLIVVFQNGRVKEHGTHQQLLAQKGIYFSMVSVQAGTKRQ

[16] = biological target: T4, MDR1G1199T in recombinant HEK cells (Homo sapiens, UniProt P08183, G185V/S400I/S893A); test: Intracellular levels of Rhodamine123 in HEK cells; assay type: cell-based
T4 construct: full-length MDR1 cDNA was generated using the high-fidelity protocol developed previously; expressed in transfected cells
T4 sequence (P08183 whole entry G185V/S400I/S893A): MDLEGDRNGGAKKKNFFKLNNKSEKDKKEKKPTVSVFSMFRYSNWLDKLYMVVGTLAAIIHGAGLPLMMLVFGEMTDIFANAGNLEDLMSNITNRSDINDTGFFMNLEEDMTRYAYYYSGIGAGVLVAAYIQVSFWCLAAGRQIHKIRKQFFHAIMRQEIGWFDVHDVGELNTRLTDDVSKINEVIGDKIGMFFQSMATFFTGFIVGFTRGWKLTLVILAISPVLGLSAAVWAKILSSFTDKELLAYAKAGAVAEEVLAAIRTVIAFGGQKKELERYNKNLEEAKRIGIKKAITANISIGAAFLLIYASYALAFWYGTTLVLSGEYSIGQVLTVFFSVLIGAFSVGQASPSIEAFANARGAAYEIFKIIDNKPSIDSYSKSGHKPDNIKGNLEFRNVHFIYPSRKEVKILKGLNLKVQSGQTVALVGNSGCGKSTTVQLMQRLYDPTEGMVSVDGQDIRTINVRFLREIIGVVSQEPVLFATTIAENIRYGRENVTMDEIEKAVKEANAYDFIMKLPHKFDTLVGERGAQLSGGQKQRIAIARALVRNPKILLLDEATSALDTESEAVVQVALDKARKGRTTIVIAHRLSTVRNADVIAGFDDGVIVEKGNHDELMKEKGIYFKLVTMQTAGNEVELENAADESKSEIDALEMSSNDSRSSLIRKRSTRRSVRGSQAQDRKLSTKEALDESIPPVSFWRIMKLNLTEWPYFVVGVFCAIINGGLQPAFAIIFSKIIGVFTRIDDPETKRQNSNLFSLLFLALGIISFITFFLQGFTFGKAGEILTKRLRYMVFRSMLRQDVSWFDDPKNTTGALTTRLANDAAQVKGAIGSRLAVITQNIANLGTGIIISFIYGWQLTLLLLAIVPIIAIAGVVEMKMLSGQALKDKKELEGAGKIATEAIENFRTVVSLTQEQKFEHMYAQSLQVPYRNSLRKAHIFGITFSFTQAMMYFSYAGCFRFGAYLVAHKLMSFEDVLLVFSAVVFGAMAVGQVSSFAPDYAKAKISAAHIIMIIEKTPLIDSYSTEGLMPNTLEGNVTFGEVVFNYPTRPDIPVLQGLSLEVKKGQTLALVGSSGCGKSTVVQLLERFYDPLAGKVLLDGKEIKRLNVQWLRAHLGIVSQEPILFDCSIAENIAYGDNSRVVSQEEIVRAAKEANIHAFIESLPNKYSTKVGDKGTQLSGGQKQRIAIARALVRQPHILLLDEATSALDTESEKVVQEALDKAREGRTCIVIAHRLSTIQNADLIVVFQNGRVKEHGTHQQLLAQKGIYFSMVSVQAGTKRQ

[17] = protease inhibitor + GF120918 (1 μM)
[18] = HEK Control, 72hours, MTS, read-out: EC50 (Mean ± S.D.)
[19] = HEK MDR1 WT, 72hours, MTS, read-out: EC50 (Mean ± S.D.)
[20] = HEK MDR1 G1199T, 72hours, MTS, read-out: EC50 (Mean ± S.D.)
[21] = 0.5 uM, 30 min load, 30 min efflux

Compound: Cc1cccc(C)c1OCC(=O)N[C@@H](Cc1ccccc1)[C@@H](O)C[C@H](Cc1ccccc1)NC(=O)[C@H](C(C)C)N1CCCNC1=O [lopinavir]
- Rate of transfer dQ/dt ± s.d., A → B [1, 17]: 8.48 ± 0.16
- Rate of transfer dQ/dt ± s.d., A → B ([1]; protease inhibitor alone, 5 μM): 9.21 ± 0.24
- decrease in apical-to-basolateral flux in MDR11199 cells compared to MDR1wt cells [2]: 1.6 fold

Compound: Cc1c(O)cccc1C(=O)N[C@@H](CSc1ccccc1)[C@H](O)CN1C[C@H]2CCCC[C@H]2C[C@H]1C(=O)NC(C)(C)C [nelfinavir]
- oral bioavailability in systemic circulation [3]: 70-80%

Compound: CC(=O)O[C@H]1C(=O)[C@@]2(C)[C@H]([C@H](OC(=O)c3ccccc3)[C@]3(O)C[C@H](OC(=O)[C@H](O)[C@@H](NC(=O)c4ccccc4)c4ccccc4)C(C)=C1C3(C)C)[C@]1(OC(C)=O)CO[C@@H]1C[C@@H]2O [paclitaxel]
- EC50 [4, 18]: 2.67 ± 0.13 nM
- EC50 at 72 h [5, 19]: 128 ± 50 nM
- EC50 at 72 h [6, 20]: 42.7 ± 12.7 nM

Compound: CC(C)c1nc(CN(C)C(=O)N[C@H](C(=O)N[C@@H](Cc2ccccc2)C[C@H](O)[C@H](Cc2ccccc2)NC(=O)OCc2cncs2)C(C)C)cs1 [ritonavir]
- Km [7]: 250 nM
- Rate of transfer dQ/dt ± s.d., A → B [1, 17]: 6.46 ± 0.69
- Rate of transfer dQ/dt ± s.d., B → A [1, 17]: 9.60 ± 0.75
- Rate of transfer dQ/dt ± s.d., A → B ([1]; protease inhibitor alone, 5 μM): 6.46 ± 0.94
- Rate of transfer dQ/dt ± s.d., B → A ([1]; protease inhibitor alone, 5 μM): 11.0 ± 0.5
- decrease in apical-to-basolateral flux in MDR11199 cells compared to MDR1wt cells [2]: 2.3 fold
- increase in basolateral-to-apical efflux in MDR11199 cells compared to MDR1wt [2]: 1.2 fold
- oral bioavailability in systemic circulation [3]: 60-80%

- EC50 [12]: 243 ± 15.1 nM
Compound: CC[C@]1(O)C[C@@H]2CN(CCc3c([nH]c4ccccc34)[C@@](C(=O)OC)(c3cc4c(cc3OC)N(C)[C@H]3[C@@](O)(C(=O)OC)[C@H](OC(C)=O)[C@]5(CC)C=CCN6CC[C@]43[C@@H]65)C2)C1 [vinblastine]
- EC50 [8]: 0.66 ± 0.22 nM
- EC50 fold-change from control [9]: 23.8 fold
- resistance of MDR11199 cells relative to MDR1wt cells [9]: about 11 fold
- EC50 [9]: 15.7 nM
- resistance of MDR11199 cells compared with MDR1wt cells [9]: more resistant
- EC50 fold-change from control [10]: 2.14 fold
- EC50 [10]: 1.41 ± 0.51 nM
- EC50 [4, 18]: 1.45 ± 0.23 nM
- EC50 at 72 h [5, 19]: 127 ± 13 nM
- EC50 at 72 h [6, 20]: 54.7 ± 7.99 nM
- directional transepithelial transport [11]: exhibit directional transepithelial transport

- EC50 at 72 h [12]: 860 ± 51.8 nM
Compound: CC[C@]1(O)C[C@H]2CN(CCc3c([nH]c4ccccc34)[C@@](C(=O)OC)(c3cc4c(cc3OC)N(C=O)[C@H]3[C@@](O)(C(=O)OC)[C@H](OC(C)=O)[C@]5(CC)C=CCN6CC[C@]43[C@@H]65)C2)C1 [vincristine]
- EC50 [8]: 0.37 ± 0.12 nM
- EC50 fold-change from control [9]: 9.23 fold
- resistance of MDR11199 cells relative to MDR1wt cells [9]: ~2.9 fold
- EC50 [9]: 3.41 ± 1.47 nM
- resistance of MDR11199 cells compared with MDR1wt cells [9]: more resistant
- EC50 fold-change from control [10]: 3.19 fold
- EC50 [10]: 1.18 ± 0.56 nM
- EC50 [4, 18]: 10.2 ± 1.04 nM
- EC50 ([4]; HEK negative control, 0 month, 72 hours, read-out: EC50 for cell growth inhibition): 4.01 ± 1.29 nM
- EC50 ([4]; HEK negative control, 1 months, 72 hours, read-out: EC50 for cell growth inhibition): 6.68 ± 0.448 nM
- EC50 ([4]; HEK negative control, 2 months, 72 hours, read-out: EC50 for cell growth inhibition): 10.2 ± 1.04 nM
- EC50 at 72 h ([5]; HEK - MDR1 WT, 0 month, 72 hours, read-out: EC50 for cell growth inhibition): 494 ± 115 nM
- EC50 at 72 h ([5]; HEK - MDR1 WT, 1 months, 72 hours, read-out: EC50 for cell growth inhibition): 512 ± 85.1 nM
- EC50 at 72 h ([5]; HEK - MDR1 WT, 2 months, 72 hours, read-out: EC50 for cell growth inhibition): 710 ± 33.3 nM
- EC50 at 72 h [5, 19]: 710 ± 33.3 nM
- EC50 at 72 h ([6]; HEK - MDR1 G1199T, 0 month, 72 hours, read-out: EC50 for cell growth inhibition): 246 ± 84 nM
- EC50 at 72 h ([12]; EC50 for cell growth inhibition, HEK - MDR1 G1199A, 0 month, 72 hours): 683 ± 276 nM
- EC50 at 72 h ([12]; EC50 for cell growth inhibition, HEK - MDR1 G1199A, 1 months, 72 hours): 667 ± 87.5 nM
- EC50 at 72 h ([12]; EC50 for cell growth inhibition, HEK - MDR1 G1199A, 2 months, 72 hours): 860 ± 51.8 nM

- % of control [13]: 100%
- Intracellular Rhodamine [13, 21]: 4.66 ± 0.14 Unit/mg protein
- Intracellular Rhodamine [14, 21]: 2.26 ± 0.06 Unit/mg protein
- % of control ([14]; converted to HEK293): 220%
- Intracellular Rhodamine [15, 21]: 1.44 ± 0.12 Unit/mg protein
- % of control ([15]; converted to HEK293): 340%
- Intracellular Rhodamine [16, 21]: 1.82 ± 0.17 Unit/mg protein
- % of control ([16]; converted to HEK293): 260%
Compound: Rhodamine-123 [R123]

Source: US7445897B2, “Sequence variants of multi-drug resistance genes, MDR1 and MRP1, and methods for assessment of drug penetration and disposition” (University of Washington, priority 2004, dated 2008)
